The values below are quoted from earlier work in patent US4966770A (priority 1989, dated 1990).

As to `C[C@]12C=CC(=O)C=C1CC[C@@H]1[C@@H]2C(=O)C[C@@]2(C)[C@H]1CC[C@]2(O)C(=O)CO` [prednisone], the solubility in alcohol entry is given as “slightly soluble in alcohol” and the solubility in water result is given as “very slightly soluble in water”.
